From patent publication US12378219B2, “Crystalline forms of a MAGL inhibitor” (H. LUNDBECK A/S, priority 2022, dated 2025)

Tests used:
[1] = target: T1, MAGL (Mus musculus, UniProt O35678); experiment: In vivo MAGL inhibition, brain proteomes after oral gavage; conditions: 5 mg/kg oral gavage; C57Bl/6J; brain proteomes 4 h after administration
T1 construct: brain proteomes were prepared and analyzed according to previously established methods; from tissue; host or cells: brain of wild-type C57Bl/6J animals
T1 sequence (O35678 1-303): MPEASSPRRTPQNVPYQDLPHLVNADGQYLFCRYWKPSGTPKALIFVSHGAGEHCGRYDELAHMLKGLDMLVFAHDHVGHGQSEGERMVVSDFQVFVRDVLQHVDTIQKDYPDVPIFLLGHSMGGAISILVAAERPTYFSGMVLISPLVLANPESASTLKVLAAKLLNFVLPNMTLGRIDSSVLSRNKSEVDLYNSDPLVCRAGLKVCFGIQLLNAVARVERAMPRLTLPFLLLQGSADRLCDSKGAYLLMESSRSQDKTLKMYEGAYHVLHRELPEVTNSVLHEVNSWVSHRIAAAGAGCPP
Protocol: Compound (I) were administered to wild-type C57Bl/6J by oral gavage in a vehicle of polyethylene glycol. Each animal was sacrificed 4 h following administration and brain proteomes were prepared and analyzed according to previously established methods (See Niphakis, M. J., et al. (2011) ACS Chem. Neurosci. and Long, J. Z., et al. Nat. Chem. Biol. 5:37-44).

[2] = target: T2, MAGL (Homo sapiens, UniProt Q99685); experiment: In vitro competitive activity-based protein profiling (ABPP) in PC3 human cell membrane proteomes; type: biochemical; conditions: 30 min preincubation at 37° C., read-out: MAGL % inh. 1 μM (human PC3)
T2 construct: measuring fluorescent intensity of gel bands corresponding to MAGL; endogenous in cells; host or cells: PC3 human cells (membrane proteome)
T2 sequence (Q99685 1-303): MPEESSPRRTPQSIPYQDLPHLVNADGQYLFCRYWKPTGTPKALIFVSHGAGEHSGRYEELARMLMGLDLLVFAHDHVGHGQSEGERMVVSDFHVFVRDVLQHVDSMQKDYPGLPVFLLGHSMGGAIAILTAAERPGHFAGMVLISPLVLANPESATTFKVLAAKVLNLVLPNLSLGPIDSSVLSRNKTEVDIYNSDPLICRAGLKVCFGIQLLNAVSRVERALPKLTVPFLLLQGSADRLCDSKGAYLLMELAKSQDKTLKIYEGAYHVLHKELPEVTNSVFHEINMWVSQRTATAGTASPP
Protocol: In Vitro Competitive Activity-Based Protein Profiling
PC3 human cell membrane proteomes (50 μL, 2.0 mg/mL total protein concentration) were preincubated with varying concentrations of Compound (I) at 37° C. After 30 min, the ABPP probe JW912-Bodipy (1.0 μL, 50 μM in DMSO) was added and the mixture was incubated for 30 min at room temperature. Reactions were quenched with SDS loading buffer (15 μL—4×) and run on SDS-PAGE. Following gel imaging, serine hydrolase activity was determined by measuring fluorescent intensity of gel bands corresponding to MAGL using ImageJ 1.43u software. Intensities were converted to percent enzyme activity by normalizing to DMSO controls. IC50 values were determined by fitting percent enzyme activities to a non-linear regression, 4-parameter, sigmoidal dose response function in Prism GraphPad.

[3] = Dynamic vapor sorption (DVS); type: physicochemical; conditions: up to 90% RH
Protocol: Example 6: Procedures Used for Dynamic Vapor Sorption (DVS) Measurements
DVS was measured using SMS DVS advantage 01 changing the relative humidity from 0% RH to 95% RH in steps of 10% RH (5% between 90 and 95% RH). 2 cycles were performed using 1-10 mg, starting at 30% RH.

[4] = Relative thermodynamic stability of crystalline forms (DSC, XRPD after heating, slurry); type: physicochemical; conditions: form 1 converts to form 3 on heating to 150° C. and upon slurry
Protocol: In a vial Compound (I) form 1 (500 mg) were slurried in a 1:1 mixture of MeCN/water at room temperature for 24 hours. A small sample of wet precipitate was analyzed by XRPD showing the diffractogram of FIG. 3.
DSC was measured using a TA-Instruments Discovery-DSC calibrated at 5°/min to give the melting point as onset value. About 2 mg of sample is heated 5°/min under nitrogen flow in a closed pan with a pinhole in the lid.
Thus, Compound (I) Form 3 was formed upon heating of Compound (I) Form 1.

Compound | MAGL % inh. 5 mg/kg (mouse) [1] | inhibition at 1 µM [2] | water uptake (DVS) [3] | thermodynamic stability relative to the other crystalline form [4]
O=C(Nc1cccnn1)[C@H]1CC12CCN(C(=O)OC(C(F)(F)F)C(F)(F)F)CC2 [Compound (I), 1,1,1,3,3,3-Hexafluoropropan-2-yl (S)-1-(pyridazin-3-ylcarbamoyl)-6-azaspiro[2.5]octane-6-carboxylate] | 100% | 100% |  | 
O=C(Nc1cccnn1)[C@H]1CC12CCN(C(=O)OC(C(F)(F)F)C(F)(F)F)CC2 [Compound (I) form 1, 1,1,1,3,3,3-Hexafluoropropan-2-yl (S)-1-(pyridazin-3-ylcarbamoyl)-6-azaspiro[2.5]octane-6-carboxylate form 1] |  |  | 1.4 wt % | 
O=C(Nc1cccnn1)[C@H]1CC12CCN(C(=O)OC(C(F)(F)F)C(F)(F)F)CC2 [Compound (I) form 3, 1,1,1,3,3,3-Hexafluoropropan-2-yl (S)-1-(pyridazin-3-ylcarbamoyl)-6-azaspiro[2.5]octane-6-carboxylate form 3] |  |  | around 0.1 wt % | thermodynamically more stable than Compound (I) Form 1
